The test system of experiment [1] is ragweed. Description: Test A preemergence. In kind it is in vivo, Ambrosia elatior. Summed up:
(§1)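 Compounds in non-phytotoxic solvent with surfactant applied as soil spray preemergence, or postemergence to plants 2-10 cm at one- to two-leaf stage, in loam/sand. After approximately 10 days in greenhouse, injury rated visually versus untreated controls, 0 (no effect) to 100 (complete control).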

For experiment [2], the system named is giant foxtail. Put plainly: Test A postemergence. In kind it is in vivo, Setaria faberii. Summed up: as §1
The subject of the next experiment is Heteranthera limosa. Put plainly: Test B flooded paddy test. In kind it is in vivo. Conditions: Flood, 250 g ai/ha, 0 to 100 scale where 0 is no effect and 100 is complete control. The method in brief:
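2-leaf stage plants; pots flooded to 3 cm, compound added to paddy water, depth maintained. Greenhouse 13–15 d. Visual rating vs untreated controls, 0 (no effect) to 100 (complete control); dash = no result.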

The next experiment relates to corn. Description: Test C preemergence. In kind it is in vivo, Zea mays. The method in brief: (§2)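 Visual injury score versus untreated controls, 0 = no effect, 100 = complete control, taken 13 to 15 days after treatment in the greenhouse. Pre-emergence pots held loam/sand; post-emergence plants grew in sphagnum peat/vermiculite mix and were sprayed at the 1- to 4-leaf stage.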

Experiment [3] relates to giant foxtail. Put plainly: Test C preemergence. It counts as in vivo, Setaria faberii. Summed up: as §2
The next experiment concerns oilseed rape. Description: Test C preemergence. It counts as in vivo, Brassica napus. The method in brief: as §2
For the next experiment, the system named is waterhemp. Description: Test C preemergence. In kind it is in vivo, Amaranthus rudis. The method in brief: as §2
A further experiment has as its system galium. Put plainly: Test C postemergence. It counts as in vivo, Galium aparine. Summed up:
as §2

For another experiment, the system named is johnsongrass. Description: Test C postemergence. It counts as in vivo, Sorghum halepense. The method in brief: as §2
The subject of experiment [4] is ragweed. Put plainly: Test C postemergence. In kind it is in vivo, Ambrosia elatior. Summed up:
as §2

Setting [5] is: 31 g ai/ha, 0 to 100 scale where 0 is no effect and 100 is complete control, visual, approximately 10 days.
The mark [6] stands for this setting: 31 g ai/ha, 0 to 100 scale, 0 no effect, 100 complete control.
The mark [7] stands for this setting: 16 g ai/ha, preemergence, scale 0 to 100 (0 no effect, 100 complete control).
Setting [8] is: 125 g ai/ha, preemergence, scale 0 (no effect) to 100 (complete control).
The mark [9] stands for this setting: Preemergence, 62 g ai/ha, scale 0 to 100, 0 no effect, 100 complete control.
Setting [10] is: 125 g ai/ha, 0 to 100 scale where 0 is no effect and 100 is complete control.
[11] abbreviates: 62 g ai/ha, preemergence, scale 0 (no effect) to 100 (complete control).
The mark [12] stands for this setting: Preemergence, 31 g ai/ha, scale 0 to 100, 0 no effect, 100 complete control.
[13] abbreviates: 16 g ai/ha, postemergence, 0 is no effect, 100 is complete control.
The mark [14] stands for this setting: 31 g ai/ha, postemergence, visual rating, scale 0 to 100 (0 no effect, 100 complete control), 13 to 15 days.
The mark [15] stands for this setting: 125 g ai/ha, postemergence, visual rating, scale 0 to 100 (0 no effect, 100 complete control).
[16] abbreviates: Postemergence, 62 g ai/ha, scale 0 to 100 (0 no effect, 100 complete control).

Consider `Fc1cccc(Oc2ncc(Cl)cn2)c1-n1cc(OCC(F)(F)F)cn1` [Compound 270], for which, in the experiment with ragweed [1] (setting [5]), the “Plant response rating, Ragweed” value was 0. The “Ragweed plant response rating (0 to 100 scale)” value with ragweed [1] (125 g ai/ha) is on record as 20. Also, the “Plant response rating, Foxtail, Giant” value turned out to be 10 in the experiment on giant foxtail [2] (setting [6]); 90 in the experiment with giant foxtail [2] (125 g ai/ha, 0 to 100 scale, 0 no effect, 100 complete control); 100 in the experiment on giant foxtail [3] (setting [9]). For the same compound, the “Plant response rating, Ducksalad” value with Heteranthera limosa is given as 100. Moreover, the “Corn plant response rating” value is 0 in the experiment on corn (setting [7]) and 55 with corn (setting [8]). Besides, the “Plant response rating, Corn” value in the experiment on corn (setting [9]) was found to be 20. In addition, the results for the “Foxtail, Giant plant response rating” value in the experiment on giant foxtail [3] (setting [7]) and in the experiment on giant foxtail [3] (setting [8]) were 5 and 100, respectively. For the same compound, the “Oilseed Rape plant response rating” value in the experiment on oilseed rape (setting [7]) was 95; in the experiment with oilseed rape (setting [8]) it was 100. For the same compound, in the experiment on oilseed rape (setting [9]), the “Plant response rating, Oilseed Rape” value was found to be 100. Besides, the “Waterhemp plant response rating” value in the experiment on waterhemp (setting [7]) worked out at 80; with waterhemp (setting [8]) it was 100. The “Plant response rating, Waterhemp” value in the experiment with waterhemp (setting [9]) is recorded as 100.
On to `N#Cc1cccc(Oc2ncc(Cl)cn2)c1-n1cnc(C(F)(F)F)c1` [Compound 252, 3-[(5-chloro-2-pyrimidinyl)oxy]-2-[4-(trifluoromethyl)-1H-imidazol-1-yl]benzonitrile], for which, in the experiment with ragweed [1] (setting [5]), the “Plant response rating, Ragweed” value came to 20. In the experiment with ragweed [1] (125 g ai/ha), the “Ragweed plant response rating (0 to 100 scale)” value is listed as 70. Moreover, in the experiment on ragweed [1] (500 g ai/ha, 0 to 100 scale where 0 is no effect and 100 is complete control), the “Ragweed plant response rating” value was 100. Also, the pest or weed control at 31 g/ha in the experiment on giant foxtail [2] (Setaria faberi, post-emergence, 240 h, 31 g ai/ha, 0 to 100 scale, 0 no effect, 100 complete control, read-out: Plant response rating, Foxtail, Giant) is 20%. In addition, the pest or weed control at 125 g/ha came to 100% with giant foxtail [2] (Setaria faberi, post-emergence, 240 h, 125 g ai/ha, 0 to 100 scale, 0 no effect, 100 complete control, read-out: Plant response rating, Foxtail, Giant); 100% in the experiment with giant foxtail [3] (Setaria faberi, pre-emergence, 125 g ai/ha, preemergence, scale 0 (no effect) to 100 (complete control), read-out: Foxtail, Giant plant response rating); 100% with waterhemp (Amaranthus tuberculatus, pre-emergence, 125 g ai/ha, preemergence, scale 0 (no effect) to 100 (complete control), read-out: Waterhemp plant response rating). Moreover, the pest or weed control at 500 g/ha with giant foxtail [2] (Setaria faberi, post-emergence, 240 h, 500 g ai/ha, 0 to 100 scale where 0 is no effect and 100 is complete control, read-out: Plant response rating, Foxtail, Giant) turned out to be 100%. Also, in the experiment on Heteranthera limosa (Heteranthera limosa, read-out: Plant response rating, Ducksalad), the pest or weed control at 250 g/ha turned out to be 75%. Besides, the plant injury at 16 g/ha with corn (Zea mays, pre-emergence, 16 g ai/ha, preemergence, scale 0 to 100 (0 no effect, 100 complete control), read-out: Corn plant response rating) was 10%; in the experiment with oilseed rape (Brassica napus, pre-emergence, 16 g ai/ha, preemergence, scale 0 to 100 (0 no effect, 100 complete control), read-out: Oilseed Rape plant response rating), 80%. In addition, the plant injury at 125 g/ha was determined as 70% in the experiment with corn (Zea mays, pre-emergence, 125 g ai/ha, preemergence, scale 0 (no effect) to 100 (complete control), read-out: Corn plant response rating) and 100% with oilseed rape (Brassica napus, pre-emergence, 125 g ai/ha, preemergence, scale 0 (no effect) to 100 (complete control), read-out: Oilseed Rape plant response rating). The same compound had a Corn plant response rating (crop injury, 0 = no effect, 100 = complete kill) at 62 g/ha in the experiment on corn (Zea mays, pre-emergence, Preemergence, 62 g ai/ha, scale 0 to 100, 0 no effect, 100 complete control) of 40%. The pest or weed control at 16 g/ha with giant foxtail [3] (Setaria faberi, pre-emergence, 16 g ai/ha, preemergence, scale 0 to 100 (0 no effect, 100 complete control), read-out: Foxtail, Giant plant response rating) is 35%; with waterhemp (Amaranthus tuberculatus, pre-emergence, 16 g ai/ha, preemergence, scale 0 to 100 (0 no effect, 100 complete control), read-out: Waterhemp plant response rating), 100%. For the same compound, the pest or weed control at 62 g/ha in the experiment on giant foxtail [3] (Setaria faberi, pre-emergence, Preemergence, 62 g ai/ha, scale 0 to 100, 0 no effect, 100 complete control, read-out: Plant response rating, Foxtail, Giant) is 100%; in the experiment with waterhemp (Amaranthus tuberculatus, pre-emergence, Preemergence, 62 g ai/ha, scale 0 to 100, 0 no effect, 100 complete control, read-out: Plant response rating, Waterhemp), 100%. In addition, the plant injury at 62 g/ha in the experiment with oilseed rape (Brassica napus, pre-emergence, Preemergence, 62 g ai/ha, scale 0 to 100, 0 no effect, 100 complete control, read-out: Plant response rating, Oilseed Rape) was determined as 100%.
With `FCc1cccc(Oc2ncc(F)cn2)c1-n1cc(C(F)(F)F)cn1` [Compound 118], the “Ragweed plant response rating (0 to 100 scale)” value in the experiment with ragweed [1] (31 g ai/ha) is recorded as 50. For the same compound, the “Plant response rating, Ragweed” value in the experiment on ragweed [1] (setting [10]) is 90. For the same compound, the results for the “Plant response rating, Foxtail, Giant” value in the experiment with giant foxtail [2] (setting [6]), with giant foxtail [2] (setting [10]) and in the experiment with giant foxtail [3] (setting [12]) were 30, 80 and 75, respectively. Besides, in the experiment with Heteranthera limosa, the “Plant response rating, Ducksalad” value is listed as 90. The “Corn plant response rating” value in the experiment with corn (setting [7]) amounted to 10; in the experiment on corn (setting [11]) it was 70; in the experiment with corn (setting [8]) it was 85. Further, the “Plant response rating, Corn” value in the experiment with corn (setting [12]) is reported as 40. The “Foxtail, Giant plant response rating” value in the experiment on giant foxtail [3] (setting [7]) was found to be 25; with giant foxtail [3] (setting [11]), 95; in the experiment with giant foxtail [3] (setting [8]) it was 100. In addition, the “Oilseed Rape plant response rating” value with oilseed rape (setting [7]) came out at 98; in the experiment with oilseed rape (setting [11]), 100; in the experiment with oilseed rape (setting [8]), 100. The “Plant response rating, Oilseed Rape” value in the experiment with oilseed rape (setting [12]) is 100. For the same compound, the entries for the “Waterhemp plant response rating” value with waterhemp (setting [7]), in the experiment on waterhemp (setting [11]) and with waterhemp (setting [8]) were 85, 100 and 100, respectively. Besides, the “Plant response rating, Waterhemp” value with waterhemp (setting [12]) is listed as 100.
In the case of `N#Cc1cnn(-c2c(CF)cccc2Oc2ncc(F)cn2)c1` [Compound 151], the “Plant response rating, Ragweed” value was found to be 20 in the experiment on ragweed [1] (setting [5]) and 80 in the experiment on ragweed [1] (setting [10]). In addition, the “Plant response rating, Foxtail, Giant” value in the experiment on giant foxtail [2] (setting [6]) turned out to be 0; in the experiment with giant foxtail [3] (setting [12]) it was 35. For the same compound, the “Foxtail, Giant plant response rating” value in the experiment with giant foxtail [2] (setting [10]) was found to be 40; in the experiment with giant foxtail [3] (setting [7]) it was 5; with giant foxtail [3] (setting [11]), 80; with giant foxtail [3] (setting [8]), 100. In addition, the “Plant response rating, Ducksalad” value in the experiment on Heteranthera limosa came to 70. In addition, the figures for the “Corn plant response rating” value in the experiment on corn (setting [7]), in the experiment on corn (setting [11]) and in the experiment on corn (setting [8]) were 0, 15 and 70, respectively. Moreover, in the experiment on corn (setting [12]), the “Plant response rating, Corn” value amounted to 5. In addition, the “Oilseed Rape plant response rating” value with oilseed rape (setting [7]) was 95; with oilseed rape (setting [11]), 100; with oilseed rape (setting [8]) it was 100. For the same compound, the “Waterhemp plant response rating” value was found to be 95 in the experiment on waterhemp (setting [7]), 100 in the experiment with waterhemp (setting [11]) and 100 with waterhemp (setting [8]).
In the case of `Fc1cccc(Oc2ncc(Cl)cn2)c1-n1cc(C2CC2)nn1` [Compound 155], the “Ragweed plant response rating” value is reported as 90 with ragweed [1] (1000 g ai/ha, 0 to 100 scale, 0 no effect, 100 complete control, approx. 10 days) and 55 in the experiment with ragweed [4] (setting [14]). Also, the “Plant response rating, Foxtail, Giant” value in the experiment on giant foxtail [2] (1000 g ai/ha, 0 to 100 scale, 0 no effect, 100 complete control) is on record as 100. The “Plant response rating, Ducksalad” value in the experiment on Heteranthera limosa was 100. In addition, the “Plant response rating (0 to 100), Galium” value in the experiment with galium (setting [13]) was 75. The “Galium plant response rating” value in the experiment on galium (setting [14]) stood at 95. Also, the “Plant response rating, Galium” value with galium (setting [15]) was found to be 100; with galium (setting [16]) it was 98. In the experiment on johnsongrass (setting [13]), the “Plant response rating (0 to 100), Johnsongrass” value worked out at 0. For the same compound, the “Johnsongrass plant response rating” value in the experiment on johnsongrass (setting [14]) is 0. Besides, the “Plant response rating, Johnsongrass” value in the experiment with johnsongrass (setting [15]) and with johnsongrass (setting [16]) was 5 throughout. For the same compound, in the experiment on ragweed [4] (setting [13]), the “Plant response rating (0 to 100), Ragweed” value worked out at 50. Moreover, the “Plant response rating, Ragweed” value is recorded as 85 in the experiment on ragweed [4] (setting [15]) and 70 in the experiment on ragweed [4] (setting [16]).

The values are drawn from patent US9695155B2, “Herbicidal substituted pyrimidinyloxy benzene compounds” (E. I. DU PONT DE NEMOURS AND COMPANY, priority 2013, dated 2017).
